Measured values as given in PubChem BioAssay (NCI).
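Interpolation was linear, between the two tested concentrations surrounding the appropriate level; five concentrations were tested over 48 hours in 96-well plates. Abbreviation: GI50, concentration required for 50% inhibition of growth. At the TGI there is no net growth.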

Legend:
Assay in all cases: growth of human tumour cells (NCI), 48 h
[1] = tested on: CAKI-1 renal
[2] = tested on: CCRF-CEM leukemia
[3] = tested on: LOX IMVI melanoma
[4] = tested on: M14 melanoma
[5] = tested on: MDA-MB-435
[6] = tested on: MOLT-4 leukemia
[7] = tested on: OVCAR-5 ovarian
[8] = tested on: PC-3 prostate
[9] = tested on: SK-MEL-28 melanoma
[10] = tested on: SNB-75 CNS

Compound	GI50 [1] [µM]	TGI [1] [µM]	GI50 [2] [µM]	TGI [2] [µM]	GI50 [3] [µM]	TGI [3] [µM]	GI50 [4] [µM]	TGI [4] [µM]	GI50 [5] [µM]	TGI [5] [µM]	GI50 [6] [µM]	TGI [6] [µM]	GI50 [7] [µM]	TGI [7] [µM]	GI50 [8] [µM]	TGI [8] [µM]	GI50 [9] [µM]	TGI [9] [µM]	GI50 [10] [µM]	TGI [10] [µM]
CCOC(=O)CCC(NC(=O)c1ccc(Nc2nc3cc(N)cc(N)c3nc2-c2ccccc2)cc1)C(=O)OCC (stereo not given)	> 52.6	> 100	5.15	> 100	25.4	> 100	11.9	> 24.4	29.9	> 60.4	9.9	> 27.2	57.1	> 93.2	20.5	89	5.76	13.3	> 100	> 100
C/C(=C\COc1ccc2ccc(=O)oc2c1)CCC(=O)C(C)(C)O		> 100		46.7		32.8		61.2		59.2		67.5		> 100		> 100		> 100		> 100
COc1cc2cc(Oc3ccc(NC(=O)Nc4cc(C(F)(F)F)cc(C(F)(F)F)c4)cc3)c(C)nc2cc1OCCN1CCCCC1	1.42	2.86	2.11	4.71	1.71	3.17	1.68	3.16	1.78	3.22	1.73	3.7	1.63	3.02	1.49	2.85	1.66	3.07	1.45	2.99
S=C1NC2=C(CCOc3c2ccc2ccccc32)C(c2ccc(Cl)cc2)N1 (stereo not given)	32.5	72.5	30.6	> 100	40.2	> 100	54.3	> 100	41.5	> 100	25.2	> 100	73.9	> 100	35.8	> 100	41.1	> 100	84	> 100
